In patent publication US10620222B2, “Electrified compositions for determining the risk of developing adolescent idiopathic scoliosis through the use of GI protein receptor” (CHU Sainte-Justine, priority 2008, dated 2020):
“And” between values parts separate entries of the source, which are not always exact repeats. Equal entries are not always repeated.

Tested on: receptors coupled to Gi proteins expressed on osteoblasts
Assay: Cellular Dielectric Spectroscopy (CDS, CELLKEY) response to Gi-coupled receptor ligands in osteoblasts from control and AIS subjects
Format: cell-based, human
Design: % of control / % of control signal, Group 1, min diff. / % of control signal, Group 2, min diff. / % of control signal, Group 3, min diff.: concentration or dose not given beside the values; dZiec value / Absolute dZiec, control value of max diff. (maximal control value): unit not given here
Details: for % of control / dZiec value: maleate; for dZiec value: n1, n2 of Exper. 1-3
Source text: Bone specimens were obtained intraoperatively from vertebras (varying from T3 to L4 according to the surgical procedure performed), while with trauma cases used as non-scoliotic controls bone specimens were obtained from other anatomical sites (tibia or femur, and in one case from an iliac crest biopsy). Osteoblasts and myoblasts isolated as previously described (Moreau A, Wang D S, Forget S et al. Melatonin Signaling Dysfunction in Adolescent Idiopathic Scoliosis. Spine 2004; 29:1772-81; Azeddine et al., 2007 Molecular determinants of melatonin signaling dysfunction in adolescent idiopathic scoliosis. Clin Orthop Relat Res. 2007, 462:45-52), were cultured at 37° C./5% CO2 in MEM supplemented with 10% fetal bovine serum (FBS) and 100 μg/mL streptomycin. Prior to the experiment, cells were seeded into the CELLKEY™ label-free cellular analysis system standard 96-well plates at a density of 5×10^4/well and grown for 24 h and incubated in standard conditions (37° C./5% CO2). In some plates, Pertussis toxin (100 ng/mL, Sigma, Oakville, ON, Canada) treatment was performed 16 h before the CDS assay. Following overnight incubation, plates were placed onto the CELLKEY™ label-free cellular analysis system and growth medium was exchanged to assay buffer (Hanks, Balanced Salt Solution containing 20 mM HEPES and 0.1% BSA) before starting the experiment. Cells were then allowed to equilibrate at room temperature for 30 min. Pre-addition measurements were made for 5 min to obtain a baseline reading. […] The quick update rate (2 s.) of the CELLKEY™ label-free cellular analysis system allows detection of these immediate changes in impedance. Impedance measurements were collected for 10 min to 15 min at 28° C. after ligand addition to monitor cellular responses to ligand interaction and to generate CELLKEY™ label-free cellular analysis system response profiles that are characteristic of the signaling mechanisms used.
The response induced by the various ligands to their receptors was measured by cellular dielectric spectroscopy (CDS) using the CELLKEY™ label-free cellular analysis technology. (MDS Sciex, San Francisco, Calif., USA). The CELLKEY™ label-free cellular analysis system integrates a proprietary impedance measurement system, custom 96-well microliter plate, onboard 96-well fluidics, and environment control and custom acquisition and analysis software in a full solution package (MDS Sciex) that is compatible with commercially available robotic platforms. Small voltage at 24 frequencies, from 1 KHz to 10 MHz, is applied to a monolayer of cells settled in a 96-well microplate containing electrodes at the bottom, and the resultant current is measured at an update rate of 2 s. […] Onboard fluid additions and exchanges are handled by 96-well head fluid delivery device with a range of 5-500 μL. In addition to the cell plate location, the CELLKEY™ label-free cellular analysis system includes two additional stations for 96- or 384-well compound plates. All aspects of assay set up, execution, and data acquisition and analysis are controlled by CELLKEY™ label-free cellular analysis software.
The minimal (min) and maximal (max) values represent the mean of three independent measurements performed in duplicate (six values in total) for a given patient/control subject. […] Duplicates (n1 and n2) of three independent experiments are presented.

[1] = osteoblasts of control subjects, 300 μM ligand, from FIGS. 11A-11F

## O=C(O)/C=C\C(=O)O.c1ccc(N2CCN(CCCOc3ccc4c(c3)OCO4)CC2)cc1 [BP554, 1-[3-(3,4-Methylenedioxyphenoxy)propyl]-4-phenyl-piperazine maleate]
Osteoblasts of AIS#1020 (Group 3) relative to CTR#60
  % of control: 44.5% and 42.3% and 48.5% and 45.1% and 43.7% and 46.6%
Osteoblasts of AIS#1020 (Group 3), 300 μM ligand
  dZiec value: 62.57 and 64.57 and 78.63 and 76.63 and 66.6 and 74.6
Osteoblasts of AIS#1198 (Group 3 in Table II) relative to CTR#69
  % of control: 41.1% and 45.0% and 40.6% and 43.5%
Osteoblasts of AIS#1198 (Group 3 in Table II), 300 μM ligand
  dZiec value: 59.83 and 64.83 and 74.63 and 70.63 and 63.73 and 71.73
Osteoblasts of AIS#1385 (Group 2) relative to CTR#69
  % of control: 50.4% and 43.4% and 51.9% and 49.0% and 46.4% and 44.8%
Osteoblasts of AIS#1385 (Group 2), 300 μM ligand
  dZiec value: 73.41 and 68.41 and 86.15 and 85.15 and 72.78 and 73.78
Osteoblasts of AIS#1468 (Group 3) relative to CTR#61
  % of control: 63.8% and 66.8% and 67.5% and 69.1% and 66.0% and 67.8%
Osteoblasts of AIS#1468 (Group 3), 300 μM ligand
  dZiec value: 84.51 and 96.51 and 104.4 and 112.4 and 95.45 and 103.45
Osteoblasts of AIS#1474 (Group 1) relative to CTR#60
  % of control: 28.4% and 27.5% and 31.8% and 29.7% and 28.7% and 29.1%
Osteoblasts of AIS#1474 (Group 1), 300 μM ligand
  dZiec value: 39.94 and 41.94 and 51.45 and 50.45 and 43.7 and 46.7
Osteoblasts of AIS#1488 (Group 1) relative to CTR#69
  % of control: 30.2% and 29.2% and 32.7% and 30.0% and 28.8% and 32.3%
Osteoblasts of AIS#1488 (Group 1), 300 μM ligand
  dZiec value: 44.06 and 46.06 and 54.24 and 52.24 and 45.15 and 53.15
Osteoblasts of AIS#1513 (Group 3) relative to CTR#61
  % of control: 68.8% and 71.4% and 73.3% and 74.6% and 71.5% and 72.9%
Osteoblasts of AIS#1513 (Group 3), 300 μM ligand
  dZiec value: 91.15 and 103.15 and 113.38 and 121.38 and 103.27 and 111.27
Osteoblasts of AIS#1549 (Group 1) relative to CTR#61
  % of control: 19.7%
Osteoblasts of AIS#1550 (Group 2) relative to CTR#60
  % of control: 53.1% and 56.8% and 56.5% and 58.5% and 55.2% and 57.4%
Osteoblasts of AIS#1550 (Group 2), 300 μM ligand
  dZiec value: 74.64 and 86.64 and 91.46 and 99.46 and 84.05 and 92.05
Osteoblasts of control CTR#60, 300 μM ligand
  dZiec value: 140.49/— and 152.49/— and 162/— and 170/— and 152.25/— and 160.25/—
Osteoblasts of control CTR#61, 300 μM ligand
  dZiec value: 132.45/— and 144.45/— and 154.6/— and 162.6/— and 144.53/— and 152.53/—
Osteoblasts of control CTR#69, 300 μM ligand
  dZiec value: 145.69/— and 157.69/— and 165.87/— and 173.87/— and 156.78/— and 164.78/—
[1]
  Absolute dZiec, control value of max diff. (maximal control value): 166
  Absolute dZiec, control value of min diff. (minimal control value): 128
osteoblasts, AIS Group 1 value of max diff., 300 μM ligand, from FIGS. 11A-11F
  Absolute dZiec, Group 1, max diff. (group value): 32
osteoblasts, AIS Group 1 value of min diff., 300 μM ligand, from FIGS. 11A-11F
  Absolute dZiec, Group 1, min diff. (group value): 49
osteoblasts, AIS Group 1 vs maximal control value
  % of control signal, Group 1, max diff.: 19%
osteoblasts, AIS Group 1 vs minimal control value
  % of control signal, Group 1, min diff.: 38%
osteoblasts, AIS Group 2 value of max diff., 300 μM ligand, from FIGS. 11A-11F
  Absolute dZiec, Group 2, max diff. (group value): 67
osteoblasts, AIS Group 2 value of min diff., 300 μM ligand, from FIGS. 11A-11F
  Absolute dZiec, Group 2, min diff. (group value): 88
osteoblasts, AIS Group 2 vs maximal control value
  % of control signal, Group 2, max diff.: 40%
osteoblasts, AIS Group 2 vs minimal control value
  % of control signal, Group 2, min diff.: 69%
osteoblasts, AIS Group 3 value of max diff., 300 μM ligand, from FIGS. 11A-11F
  Absolute dZiec, Group 3, max diff. (group value): 99
osteoblasts, AIS Group 3 value of min diff., 300 μM ligand, from FIGS. 11A-11F
  Absolute dZiec, Group 3, min diff. (group value): 107
osteoblasts, AIS Group 3 vs maximal control value
  % of control signal, Group 3, max diff.: 60%
osteoblasts, AIS Group 3 vs minimal control value
  % of control signal, Group 3, min diff.: 84%
